Structures can show the parent of a compound that is named as a salt.
Tests used:
[1] = tested on: human peripheral myelin protein 22 (PMP22); test: HTS of FDA-approved drug library for compounds that alter phase partitioning of PMP22 in GPMVs; settings: for hit class in PMP22 screen: 1184 compound library of FDA-approved drugs; for hit class in PMP22 screen / shift of PMP22 phase preference in favor of the ordered (raft) phase: 10 micromolar; for shift of PMP22 phase preference in favor of the ordered (raft) phase: control value 78%, reproducible at 1 micromolar; for effect on relative ordered (raft) vs. disordered phase proportions: in the absence or presence of PMP22
Description: By way of example and not limitation, in some embodiments PMP22 containing a MYC epitope sequence was employed in the GPMVs (hereafter referred to as “PMP22”, such as by expressing a MYC-Tagged PMP22 in Hela cells, followed by formation of PMP22 containing GPMVs, followed by addition of a commercial fluorescently labeled anti-MYC antibody to confer fluorescence to PMP22 in GPMVs, thereby making PMP22 detectable to enable its quantitation in the raft phase domains versus in the non-raft phase domains. See Marinko et al. (2020) Proc Natl Acad Sci USA 117(25):14168-14177.
The assay was scaled up to carry out high throughput screens (HTS). The strategy for these screens is similar to those outlined for our approach to finding compounds that shift the raft vs. non-raft phase domain distribution in GPMVs, except that in this case we were interested in discovering compounds that either shift PMP22 out of rafts or enhance its partitioning into the ordered raft phase domain. This pilot HTS screen involved the 1184 compound library of FDA-approved drugs at a concentration of 10 micromolar each and was carried out in the Vanderbilt HTS Core. We predicted that select compounds might sometimes change not only the phase partitioning of PMP22, but also change the actual amounts of ordered (raft) versus disordered phase domains that are present. We also wondered whether PMP22 and certain compounds might act synergistically (through any one of several possible mechanisms) to alter membrane phase behavior. This could potentially cause the compounds to have different effects on the ratio of raft versus disordered domains in the absence relative to the presence of the PMP22 protein. To test these possibilities, we compared the results of our screen to the results of preliminary screens carried out on the same compounds in GPMVs lacking expressed PMP22. This allowed us to directly evaluate the effects of the compounds under both conditions. The plots shown in FIGS. 28A and 28B, as well as additional data not shown reveal several classes of PMP22-impacting hits from this 1184 compound library: […]

GPMVs from HeLa cells = test: Di4 fluorescence lifetime imaging (lipid packing in GPMVs); parameters: species or system human; settings: TLCK 1 μM, C6-ceramide 1 μM, MβCD 5 mM
Description: It was also of interest how TLCK and C6-ceramide impact other properties of the membrane compared to treatments such as cholesterol depletion that are commonly used to disrupt rafts in cells (Zidovetzki & Levitan, 2007). To test this, we examined their effects on membrane lipid packing and fluidity using a fluorescent reporter of membrane packing, Di-4-[…] (Di4) (Jin et al., 2006; Owen et al., 2006; Sezgin et al., 2014; Levental et al., 2020b; Lorent et al., 2020). As a control, we subjected GPMVs to cholesterol depletion using 5 mM MβCD. The photophysical characteristics of Di4, including its lifetime, are dependent on lipid packing in membranes. In particular, a lower Di4 lifetime is indicative of loose packing and a more fluid membrane environment whereas higher Di4 lifetimes point to a less fluid membranes and tighter lipid packing. […] The phase separated vesicles were characterized by two populations of lifetimes, corresponding to the Lo phase (higher lifetime) and Ld phase (lower lifetime) (FIGS. 11A-11F).
GPMVs were prepared as previously described by Sezgin, E, et al., Nat Protoc 2012, 7 (6), 1042-51. In brief, HeLa cells were washed twice with GPMV buffer (2 mM CaCl2)/10 mM HEPES/0.15 M NaCl, pH 7.4), then washed twice with GPMV active buffer (GPMV buffer containing 25 mM formaldehyde and 2 mM DTT). Cells were then incubated with GPMV active buffer for 1-2 hours at 37° C. with shaking at 90-95 RPM. The GPMV-containing supernatant was decanted into a centrifuge tube and GPMVs were allowed to settle for 1 h. Aliquots of GPMVs (100 μL) were pipetted from the bottom of the Eppendorf tube into separate tubes and treated with DMSO (0.1%), 1 μM TLCK, 1 μM C6-ceramide or 5 mM MbCD. After 5 min, Di 4 […] (Di4) (Thermo Scientific) was added to a final concentration of […] from a stock solution of 1 mg/mL Di4 in ethanol. The GPMVs were then sandwiched between two coverslips coated with 1 mg/mL bovine serum albumin (BSA) solution and allowed to incubate for an additional 20 min prior to lifetime measurements.
Di4 lifetime images were performed on a Leica TCS SP8 system comprising a Leica DMi8 inverted scanning confocal microscope with time-correlated single photon counting (TC-SPC) system and an 80 MHz-pulsed supercontinuum white light laser which allows continuously tunable excitation in the visible range coupled with filter-free detection. Samples were imaged using an HC PL APO CS2 63X/1.20 water objective. Di4 was excited at 488 nm and the emission was collected in the 550-800 nm range. The photon count rate was kept under 0.5 photons per laser pulse by adjusting the laser power, and sufficient frames were cumulatively acquired to obtain at least 100 photons per pixel. The fluorescence decay curves were fit with a bi-exponential re-convolution function adjusted to the instrument response function, and the average intensity-weighted lifetime was calculated for individual vesicles or area of interest and represented in the FLIM images as Di4 lifetime. Data are reported from two independent experiments. Statistical analyses were performed using GraphPad Prism 9.3.0.

With `CN(C)c1ccc(C(=C2C=CC(=[N+](C)C)C=C2)c2ccc(N(C)C)cc2)cc1` [Crystal violet] the “hit class in PMP22 screen” value [1] was “false positive”.
With `Clc1ccc2c(c1)CCc1cccnc1C2=C1CCNCC1` [Desloratadine] the “shift of PMP22 phase preference in favor of the ordered (raft) phase” value [1] was ~10%, the “hit class in PMP22 screen” value [1] was “Class I” and the “effect on relative ordered (raft) vs. disordered phase proportions” value [1] was “without significantly perturbing”.
`CSc1ccc2c(c1)N(CCC1CCCCN1C)c1ccccc1S2` (stereo not drawn) [Thioridazine-HCl] was tested, and the “shift of PMP22 phase preference in favor of the ordered (raft) phase” value [1] was ~10%, the “hit class in PMP22 screen” value [1] was “Class I” and the “effect on relative ordered (raft) vs. disordered phase proportions” value [1] was “without significantly perturbing”.
In the case of MβCD, the “phase state of GPMVs in FLIM images” value (GPMVs from HeLa cells; room temperature) is reported as “multiple domains with the same lifetime” and the “average Di4 lifetime” value (GPMVs from HeLa cells; single-phase GPMVs (MβCD: average across all domains), control 2.53±0.06 ns, mean±SD) is reported as 1.99±0.09 ns.
